For this assay, the system named is AP-1 induced transcriptional activity. As to the kind of experiment: Cellular Transrepressional Assay (AP-1 luciferase reporter, PMA-activated A549 cells). The following applies: for Emax: A549, 7 h, read-out: AP-1 Max % inh (Cellular Transrepression Assay); for Emax / AP-1 Max % inh (Cellular Transrepression Assay): maximum inhibition. It counts as cell-based. The method, then: Cellular Transrepressional Assay
To measure the ability of test molecules to inhibit AP-1 induced transcriptional activity we utilized an A549 cell which was stably transfected with a plasmid containing 7× AP-1 DNA binding sites (pAP-1-Luc plasmid, Stratagene Co. La Jolla, Calif.) followed by the gene for luciferase. Cells were activated with 10 ng/ml of […] (PMA) plus or minus test molecules for 7 hours. After 7 hours a luciferase reagent was added to measure luciferase enzymatic activity in the cell. After a 10 minute incubation of luciferase reagent with cells, luminescence was measured in a TopCount luminescence counter. Repression of AP-1 activity was calculated as the percentage decrease in the signal induced by PMA alone. Test molecules were analyzed in the concentration range from 0.1 nM to 40 μM. EC50s were determined by using standard curve fitting methods such as Excel fit (Microsoft Co.).
A general note: Reporter assays use an easily measured gene product as a stand-in for the process of interest.

[1] abbreviates: Homo sapiens, Cellular Transrepression Assay.
The mark [2] stands for this setting: Homo sapiens, A549, Cellular Transrepression Assay.

Experimental findings from patent publication US8034940B2, “Modulators of glucocorticoid receptor, AP-1, and/or NF-κB activity and use thereof” (Bristol-Myers Squibb Company, priority 2006, dated 2011) are described below.

The structures appear in SMILES notation.

As to `COc1ccc2c(c1)Oc1ccccc1C2C(C)(C)C(=O)Nc1nc(Cc2ccc(Br)cc2)cs1` (stereo not shown) [Example 50], the Emax under setting [1] amounted to 74.8%. The same compound registered an EC50 under setting [2] of 165 nM.
`O=C(CC1c2ccccc2Oc2ccccc21)Nc1nc(Cc2ccc(-c3ccncc3)cc2)cs1` [Example 1]: under setting [1], the Emax stood at 69.3%. This compound also returned an EC50 under setting [2] of 157 nM.
As for `CCNC(=O)Oc1ccc2c(c1)Oc1ccccc1C2C(C)(C)C(=O)Nc1nncs1` (stereo not shown) [Example 387], the Emax under setting [1] worked out at 52.5%. This compound also displayed an EC50 under setting [2] of 82 nM.
For the compound `CC(C)(C(=O)Nc1nncs1)C1c2ccccc2Oc2nc(N3CCCC3)ccc21` (stereo not shown) [Example 130], the Emax under setting [1] is 31.5%. For the same compound, the response under setting [2] was half-maximal at 111 nM (EC50).
`CC(C)(C(=O)Nc1nncs1)C1c2ccccc2Oc2nc(-c3ccc(O)cc3)ccc21` (stereo not shown) [Example 191]: for the setting “Cellular Transrepression Assay”, the EC50 worked out at 22.6 nM and the “AP-1 Max % inh (Cellular Transrepression Assay)” value (shortened to “AP-1 Max % inh”) amounted to 37.51%.
In the case of `CC(C)(C(=O)Nc1ncc(S(C)(=O)=O)s1)[C@H]1c2ccccc2Oc2nc(-c3ccc(C(=O)N4CCCC4)c(F)c3)ccc21` [Example 426], the Emax under setting [1] turned out to be 31.8%. It took 117 nM to reach a half-maximal effect under setting [2] (EC50).
For the compound `CC(C)(C(=O)Nc1nncs1)C1c2ccccc2Oc2nc(N)ccc21` (stereo not shown) [Example 159], the Emax under setting [1] was found to be 30.3%. Besides, the EC50 under setting [2] amounted to 479 nM.
As to `COc1cccc2c1Oc1ccccc1C2C(C)(C)C(=O)Nc1nc(-c2ccc(F)c3ccccc23)cs1` (stereo not shown) [Example 82], the Emax under setting [1] worked out at 72.6%. In addition, under setting [2], it took 126 nM to reach a half-maximal effect (EC50).
For `CC(C)(C(=O)Nc1nccs1)C1c2ccccc2Oc2nc(N3CCOCC3)ccc21` (stereo not shown) [Example 154], the Emax under setting [1] was 46.2%. The EC50 under setting [2] is 236 nM.
For `CN(C)C(=O)c1ccc(-c2ccc3c(n2)Oc2ccccc2[C@@H]3C(C)(C)C(=O)Nc2nnc(C(F)(F)F)s2)cc1` [Example 446] the same measures were 27.7% and 413 nM.
Turning to `CC(C)(C(=O)Nc1nncs1)C1c2ccccc2Oc2cc(OC(=O)NCc3ccco3)ccc21` (stereo not shown) [Example 393], under “Cellular Transrepression Assay”, it took 53.4 nM to reach a half-maximal effect (EC50) and the “AP-1 Max % inh” value is on record as 43.80%.
In the case of `CC(C)(C(=O)Nc1nncs1)[C@H]1c2ccccc2Oc2nc(N3CCCC3)ccc21` [Example 141], the Emax under setting [1] was determined as 44.2%. Besides, the EC50 under setting [2] came out at 92.1 nM.
Take `Cc1nnc(NC(=O)C(C)(C)C2c3ccc(-c4ccc(C(=O)N(C)C)c(F)c4)nc3Oc3c(F)cccc32)s1` (racemic) [Example 167]: where the note is “Cellular Transrepression Assay”, the EC50 is 36.6 nM and the “AP-1 Max % inh” value was determined as 57.94%.
As to `CCc1ccc(-c2ccc3c(n2)Oc2ccccc2C3C(C)(C)C(=O)Nc2nncs2)cc1` (stereo not shown) [Example 206], for the setting “Cellular Transrepression Assay”, the EC50 worked out at 21.3 nM and the “AP-1 Max % inh” value came to 54.73%.
`CCN(C)C(=O)c1ccc(-c2ccc3c(n2)Oc2ccccc2[C@@H]3C(C)(C)C(=O)Nc2ncns2)cc1` [Example 467]: the Emax under setting [1] amounted to 57.5%. Besides, it took 15 nM to reach a half-maximal effect under setting [2] (EC50).
Consider `Cc1nsc(NC(=O)C(C)(C)C2c3ccc(-c4ccc(C(=O)N5CCOCC5)cc4)nc3Oc3c(F)cccc32)n1` (stereo not shown) [Example 164], for which the Emax under setting [1] was 58%. Moreover, the EC50 under setting [2] was 8.5 nM.
Consider `CC(C)(C(=O)Nc1nncs1)C1c2ccccc2Oc2cc(OC(=O)NC3CCCCC3)ccc21` (stereo not shown) [Example 373], for which, under “Cellular Transrepression Assay”, a half-maximal effect (EC50) was put at 32.8 nM. Under setting [1], the Emax came out at 45.6%.
With `Cc1nnc(NC(=O)C(C)(C)[C@H]2c3ccccc3Oc3nc(-c4ccc(C(=O)N5CCOCC5)c(F)c4)ccc32)s1` [Example 472], the Emax under setting [1] came out at 47%. This compound gave an EC50 under setting [2] of 26.9 nM.
For `Cc1nnc(NC(=O)C(C)(C)[C@H]2c3ccccc3Oc3nc(-c4ccc(C(=O)N5CCOCC5)c(Cl)c4)ccc32)s1` [Example 473], the Emax under setting [1] was determined as 52.5%. The compound also returned an EC50 under setting [2] of 40.2 nM.
In the case of `CN(C)C(=O)c1ccc(-c2ccc3c(n2)Oc2ccccc2[C@@H]3C2(C(=O)Nc3nncs3)CCC2)cc1` (single isomer, unassigned) [Example 480], the Emax under setting [1] stood at 44%. Further, a half-maximal effect under setting [2] (EC50) was put at 27 nM.
Consider `CC(C)(C(=O)Nc1nncs1)[C@H]1c2ccccc2Oc2nc(-c3ccc(C(=O)N4CCOCC4)s3)ccc21` [Example 463], for which the Emax under setting [1] worked out at 26.2%. This compound also displayed an EC50 under setting [2] of 45.3 nM.
Regarding `Cc1nnc(NC(=O)C(C)(C)[C@H]2c3ccccc3Oc3nc(-c4ccc(C(=O)N5CCCC5)cc4)ccc32)s1` [Example 460], the Emax under setting [1] amounted to 56.9%. Under setting [2], the EC50 came out at 30.3 nM.
With `CC(C)(C(=O)Nc1nncs1)[C@H]1c2ccccc2Oc2nc(-c3ccc(C(=O)N4CCCC4)cc3)ccc21` [Example 252], under “Cellular Transrepression Assay”, the EC50 was 34.6 nM and the “AP-1 Max % inh” value is reported as 60.94%.
Regarding `CC(C)(C(=O)Nc1nncs1)[C@H]1c2ccccc2Oc2nc(-c3ccc(C(=O)N4CCC(F)(F)CC4)cc3)ccc21` [Example 300], the Emax under setting [1] is 61.8%. The compound further displayed an EC50 under setting [2] of 14.8 nM.
As to `CC(C)(C(=O)Nc1ncc(C#N)s1)[C@H]1c2ccccc2Oc2nc(-c3ccc(C(=O)N4CCCC4)c(F)c3)ccc21` [Example 410], the Emax under setting [1] was determined as 48.1%. Further, the EC50 under setting [2] was 53.3 nM.
Regarding `CC(C)(C(=O)Nc1nnc(CF)s1)[C@H]1c2ccccc2Oc2nc(-c3ccc(C(=O)N4CCOCC4)cc3)ccc21` [Example 430], the Emax under setting [1] was found to be 47.2%. Under setting [2], this compound came in with an EC50 of 34.7 nM.
Take `CC(=O)c1ccc(-c2ccc3c(n2)Oc2ccccc2C3C(C)(C)C(=O)Nc2nncs2)cc1F` (stereo not shown) [Example 229]: under “Cellular Transrepression Assay”, the EC50 worked out at 42 nM and the “AP-1 Max % inh” value is recorded as 39.34%.
In the case of `CC(C)(C(=O)Nc1nccs1)C1c2ccccc2Oc2nc(N)ccc21` (stereo not shown) [Example 158], the Emax under setting [1] was 62.5%. Under setting [2], this compound returned an EC50 of 200 nM.
Turning to `COc1ccc(-c2ccc3c(n2)Oc2ccccc2C3C(C)(C)C(=O)Nc2nncs2)cc1` (stereo not shown) [Example 169], for the setting “Cellular Transrepression Assay”, the EC50 was 92.7 nM and the “AP-1 Max % inh” value is reported as 48.82%.
As to `CC(C)(C(=O)Nc1nncs1)C1c2ccccc2Oc2cc(OC(=O)NCc3ccc(Cl)c(Cl)c3)ccc21` (stereo not shown) [Example 379], for the setting “Cellular Transrepression Assay”, a half-maximal response (EC50) required 74 nM and the “AP-1 Max % inh” value worked out at 51.21%.
In the case of `CCS(=O)(=O)c1ccc(-c2ccc3c(n2)Oc2ccccc2C3C(C)(C)C(=O)Nc2nncs2)cc1` (stereo not shown) [Example 227], for the setting “Cellular Transrepression Assay”, the EC50 came out at 37.9 nM and the “AP-1 Max % inh” value is on record as 42.50%.
With `CC(C)N(C)C(=O)c1ccc(-c2ccc3c(n2)Oc2ccccc2C3C(C)(C)C(=O)Nc2nncs2)cc1` (stereo not shown) [Example 258], under “Cellular Transrepression Assay”, it took 534 nM to reach a half-maximal effect (EC50) and the “AP-1 Max % inh” value came out at 40.99%.
For the compound `CC(C)(C(=O)Nc1nnc(CF)s1)[C@H]1c2ccccc2Oc2nc(-c3ccc(C(=O)N4CCCC4)cc3)ccc21` [Example 433], the Emax under setting [1] was determined as 46.2%. Also, under setting [2], the EC50 is 41 nM.
With `CC(C)(C(=O)Nc1nnc(C#N)s1)[C@H]1c2ccccc2Oc2nc(-c3ccc(C(=O)N4CCCC4)c(F)c3)ccc21` [Example 435], under setting [1], the Emax stood at 27.9%. The compound also had an EC50 under setting [2] of 292 nM.
On to `CC(C)S(=O)(=O)c1ccc(-c2ccc3c(n2)Oc2ccccc2C3C(C)(C)C(=O)Nc2nncs2)cc1` (stereo not shown) [Example 228], for which, where the note is “Cellular Transrepression Assay”, it took 51.5 nM to reach a half-maximal effect (EC50) and the “AP-1 Max % inh” value is 28.32%.
Consider `Cc1nnc(NC(=O)C2(C3c4ccccc4Oc4nc(-c5ccc(C(=O)N(C)C)cc5)ccc43)CCC2)s1` (stereo not shown) [Example 488], for which the Emax under setting [1] is 34.5%. Under setting [2], the EC50 turned out to be 42.9 nM.
In the case of `CCSc1ccc(-c2ccc3c(n2)Oc2ccccc2C3C(C)(C)C(=O)Nc2nncs2)cc1` (stereo not shown) [Example 226], under “Cellular Transrepression Assay”, a half-maximal effect (EC50) was put at 18.1 nM and the “AP-1 Max % inh” value was 49.05%.
Take `CC(C)(C(=O)Nc1nncs1)[C@H]1c2ccccc2Oc2nc(-c3ccc(C(=O)NC4CC4)cc3)ccc21` [Example 350]: under setting [1], the Emax was 45.1%. Also, the EC50 under setting [2] amounted to 520 nM.
Take `COc1ccc2c(c1)Oc1ccccc1[C@@H]2C(C)(C)C(=O)Nc1nc(Cc2ccc(-c3ccncc3)cc2)cs1` [Example 58]: the Emax under setting [1] came out at 70%. This compound gave an EC50 under setting [2] of 3.71 nM.
Regarding `CC(C)(C(=O)Nc1nnc(N)s1)[C@H]1c2ccccc2Oc2nc(-c3ccc(C(=O)N4CCCC4)c(F)c3)ccc21` [Example 428], the Emax under setting [1] came to 26.9%. Under setting [2], this compound yielded an EC50 of 30.3 nM.
As for `CC(C)(C(=O)Nc1nnc(C(=O)NC2CC2)s1)[C@H]1c2ccccc2Oc2nc(-c3ccc(C(=O)N4CCOCC4)cc3)ccc21` [Example 422], under setting [1], the Emax was 63.5%. Besides, a half-maximal response under setting [2] (EC50) required 46.7 nM.
In the case of `CC(C)(C(=O)Nc1nncs1)[C@H]1c2ccccc2Oc2nc(-c3ccc(C(=O)N4CCCC4)c(F)c3)ccc21` [Example 333], under “Cellular Transrepression Assay”, the EC50 turned out to be 24.7 nM and the “AP-1 Max % inh” value was found to be 52.71%.
Take `CCCOc1ccc(-c2ccc3c(n2)Oc2ccccc2C3C(C)(C)C(=O)Nc2nncs2)cc1F` (stereo not shown) [Example 230]: for the setting “Cellular Transrepression Assay”, the EC50 amounted to 550 nM and the “AP-1 Max % inh” value is listed as 52.33%.
With `CC(C)(C(=O)Nc1nncs1)[C@H]1c2ccccc2Oc2cc(O)ccc21` [Example 90], the Emax under setting [1] was found to be 59.5%. Under setting [2], this compound yielded an EC50 of 6.43 nM.
As for `CC(C)(C(=O)Nc1nncs1)C1c2ccccc2Oc2nc(-c3ccc(N)cc3)ccc21` (stereo not shown) [Example 200], for the setting “Cellular Transrepression Assay”, the EC50 worked out at 134 nM and the “AP-1 Max % inh” value was determined as 53.76%.
Take `CC(C)(C(=O)Nc1nc(-c2ccc(F)c3ccccc23)cs1)C1c2ccccc2Oc2ccc(C(F)(F)F)cc21` (stereo not shown) [Example 40]: under setting [1], the Emax was 47.8%. This compound showed an EC50 under setting [2] of 461 nM.
On to `CC(C)(C(=O)Nc1nncs1)C1c2ccccc2Oc2cc(OC(=O)NC3CCCCC3)ccc21` (stereo not shown) [Example 385], for which, under “Cellular Transrepression Assay”, it took 96.5 nM to reach a half-maximal effect (EC50) and the “AP-1 Max % inh” value amounted to 28.99%.

A word on the EC50: it is the concentration needed to bring the measured effect to its halfway point.
